Test results: patent US5206237A, “Benzodiazepine analogs” (Merck & Co., Inc., priority 1991, dated 1993)

Tests used:
[1] = test system: CCK-A receptors; settings: in words; cited from earlier work
[2] = test system: CCK-B receptors; settings: in words; cited from earlier work
[3] = test system: stomach gastrin receptor; settings: in words; cited from earlier work
[4] = rat, brain synaptosomal fraction; cited from earlier work
[5] = biological target: T1, CCK receptor (pancreas) (Rattus norvegicus, UniProt P30551); test: CCK receptor binding (Pancreas), inhibition of 125I-CCK binding; set-up: species or system rat (male Sprague-Dawley); settings: 125I-CCK-33, 37° C., 30 minutes, read-out: IC^50 ^125 I-CCK Pancreas
T1 construct: The whole pancreas was dissected free of fat tissue and was homogenized; from tissue; host or cells: rat whole pancreas, membrane preparation
T1 sequence (P30551 1-444): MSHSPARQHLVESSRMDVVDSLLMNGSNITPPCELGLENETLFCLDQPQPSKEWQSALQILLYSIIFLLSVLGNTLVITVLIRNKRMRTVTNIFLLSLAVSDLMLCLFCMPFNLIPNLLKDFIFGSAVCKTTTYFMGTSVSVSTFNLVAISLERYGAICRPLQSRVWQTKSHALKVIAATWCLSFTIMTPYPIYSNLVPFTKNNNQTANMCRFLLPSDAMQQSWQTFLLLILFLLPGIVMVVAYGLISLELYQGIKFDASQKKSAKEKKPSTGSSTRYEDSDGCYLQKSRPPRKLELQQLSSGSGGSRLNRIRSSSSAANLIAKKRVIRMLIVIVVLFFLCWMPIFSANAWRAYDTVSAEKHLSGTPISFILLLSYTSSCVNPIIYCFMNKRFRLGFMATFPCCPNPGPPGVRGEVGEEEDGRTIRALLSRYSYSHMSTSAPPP
Experimental: 1. CCK Receptor Binding (Pancreas)
CCK-33 was radiolabeled with ^125 I-Bolton Hunter reagent (2000 Ci/mmole) as described by Sankara et al. (J. Biol. Chem. 254: 9349-9351, 1979). Receptor binding was performed according to Innis and Snyder (Proc. Natl. Acad. Sci. 77: 6917-6921, 1980) with the minor modification of adding the additional protease inhibitors, phenyl-methane sulfonyl fluoride and o-phenanthroline. The latter two compounds have no effect on the ^125 I-CCK receptor binding assay.
Male Sprague-Dawley rats (200-350g) were sacrificed by decapitation. The whole pancreas was dissected free of fat tissue and was homogenized in 20 volumes of ice-cold 50 mM, Tris HCl (pH 7.7 at 25° C.) with a Brinkmann Polytron PT 10. The homogenates were centrifuged at 48,000 g for 10 min. Pellets were resuspended in Tris Buffer, centrifuged as above and resuspended in 200 volumes of binding assay buffer (50 mM Tris HCl, pH 7.7 at 25° C., 5 mM dithiothrietol, 0.1 mM bacitracin, 1.2 mM phenylmethane sulfonyl fluoride and 0.5 mM o-phenanthroline). […] All assays were run in duplicate or triplicate. The reaction mixtures were incubated at 37° C. for 30 minutes and centrifuged in a Beckman Microfuge (4 minutes) immediately after adding 1 ml of ice-cold incubation buffer. The supernatant was aspirated and discarded, pellets were counted with a Beckman gamma 5000. For Scatchard analysis (Ann. N.Y. Acad. Sci. 51: 660, 1949), ^125 I-CCK-33 was progressively diluted with increasing concentrations of CCK-33.

[6] = biological target: T2, CCK receptor (brain) (Cavia porcellus, UniProt H0VZC5); test: CCK receptor binding (Brain), inhibition of 125I-CCK binding; set-up: species or system guinea pig (male Hartley); settings: guinea pig cerebral cortex, 125I-CCK-33, 25° C., 2 hours; read-out: IC^50 ^125 I-CCK Brain
T2 construct: Cerebral cortex was dissected and used as a receptor source; from tissue; host or cells: guinea pig cerebral cortex, membrane preparation
T2 sequence (H0VZC5 entry or part of it): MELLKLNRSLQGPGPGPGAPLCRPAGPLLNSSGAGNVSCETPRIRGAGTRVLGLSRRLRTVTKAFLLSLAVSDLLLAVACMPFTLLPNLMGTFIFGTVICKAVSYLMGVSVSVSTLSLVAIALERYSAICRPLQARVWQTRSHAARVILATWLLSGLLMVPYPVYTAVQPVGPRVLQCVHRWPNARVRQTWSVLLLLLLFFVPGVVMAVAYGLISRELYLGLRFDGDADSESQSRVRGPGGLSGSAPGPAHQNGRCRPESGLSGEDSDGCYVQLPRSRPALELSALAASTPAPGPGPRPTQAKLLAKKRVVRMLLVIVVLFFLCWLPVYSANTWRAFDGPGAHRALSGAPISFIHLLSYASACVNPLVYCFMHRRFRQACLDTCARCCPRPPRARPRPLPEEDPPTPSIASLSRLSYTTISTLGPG
Experimental: 2. CCK Receptor Binding (Brain)
CCK-33 was radiolabeled and the binding was performed according to the description for the pancreas method with modifications according to Saito et al., J. Neurochem. 37, 483-490, 1981.
Male Hartley guinea pigs (300-500 g) were sacrificed by decapitation and the brains were removed and placed in ice-cold 50 mM, Tris HCl plus 7.58 g/l Trizma-7.4 (pH 7.4 at 25° C.). Cerebral cortex was dissected and used as a receptor source. Each gram of fresh guinea pig brain tissue was homogenized in 10 ml of Tris Trizma buffer with a Brinkman polytron PT-10. The homogenates were centrifuged at 42,000 g for 15 min. […] All assays were run in duplicate or triplicate. The reaction mixtures were incubated at 25° C. for 2 hours and centrifuged in a Beckman Microfuge (4 minutes) immediately after adding 1 ml of ice-cold incubation buffer. The supernatant was aspirated and discarded, pellets were counted with a Beckman gamma 5000.

[7] = biological target: T3, gastrin receptor (Cavia porcellus, UniProt H0VZC5); test: Gastrin receptor binding in guinea pig gastric glands; set-up: species or system guinea pig (male Hartley); settings: read-out: IC^50 Gastrin
T3 construct: Guinea pig gastric mucosal glands were prepared by the procedure of Berglingh and Obrink; from tissue; host or cells: guinea pig gastric mucosal glands
T3 sequence (H0VZC5 entry or part of it): as above
Experimental: Gastrin antagonist activity of compounds of Formula I is determined using the following assay: […]
Gastrin Receptor Binding in Guinea Pig Gastric Glands Preparation of guinea pig gastric mucosal glands
Guinea pig gastric mucosal glands were prepared by the procedure of Berglingh and Obrink Acta Physiol. Scand. 96: 150 (1976) with a slight modification according to Praissman et al. C. J. Receptor Res. 3: (1983). Gastric mucosa from guinea pigs (300-500 g body weight, male Hartley) were washed thoroughly and minced with fine scissors in standard buffer consisting of the following: 130 mM NaCl, 12 mM NaHCO3, 3 mM NaH2 PO4, 3 mM K2 HPO4, 2 mM MgSO4, 1 mM CaCl2, 5 mM glucose and 4 mM L-glutamine, 25 mM HEPES at pH 7.4. The minced tissues were washed and then incubated in a 37° C. shaker bath for 40 minutes with the buffer containing 0.1% collagenase and 0.1% BSA and bubbled with 95% O2 and 5% CO2. The tissues were passed twice through a 5 ml glass syringe to liberate the gastric glands, and then filtered through 200 mesh nylon. The filtered glands were centrifuged at 270 g for 5 minutes and washed twice by resuspension and centrifugation.

| Compound | affinity for CCK-A receptors [1] | affinity for CCK-B receptors [2] | IC50 [5] [nM] | IC50 [6] [nM] | IC50 [7] [nM] | also measured |
| --- | --- | --- | --- | --- | --- | --- |
| CSCC[C@H](NC(=O)[C@@H](N)Cc1c[nH]c2ccccc12)C(=O)N[C@@H](CC(=O)O)C(=O)N[C@@H](Cc1ccccc1)C(N)=O [CCK-4] | lower affinity | high affinity | – | – | – | potency at stomach gastrin receptor [3]: minimum fully potent CCK sequence |
| CSCC[C@H](NC(=O)[C@H](Cc1ccc(O)cc1)NC(=O)[C@@H](N)CC(=O)O)C(=O)NCC(=O)N[C@@H](Cc1c[nH]c2ccccc12)C(=O)N[C@@H](CCSC)C(=O)N[C@@H](CC(=O)O)C(=O)N[C@@H](Cc1ccccc1)C(N)=O [CCK-8d] | lower affinity | – | – | – | – | – |
| CSCC[C@H](NC(=O)[C@H](Cc1ccc(OS(=O)(=O)O)cc1)NC(=O)[C@@H](N)CC(=O)O)C(=O)NCC(=O)N[C@@H](Cc1c[nH]c2ccccc12)C(=O)N[C@@H](CCSC)C(=O)N[C@@H](CC(=O)O)C(=O)N[C@@H](Cc1ccccc1)C(N)=O [CCK-8s, H-Asp-Tyr(SO3 H)-Met-Gly-Trp-Met-Asp-Phe-NH2] | high affinity | high affinity | – | – | – | half-life [4]: less than 1 hour |
| CSC1=Nc2ccccc2C(c2ccccc2F)=N[C@@H]1Cc1c[nH]c2ccccc12 [Example 2, 2-Methylthio-3(R)-(3'-indolyl)methyl-5-(2'-fluorophenyl)2H-1,4-benzodiazepine] | – | – | 17000 | – | – | – |
| Cc1cccc(NC(=O)NC2N=C(c3ccccc3)c3ccccc3N=C2NCC(=O)N2CCCC2)c1 (stereo not shown) [Example 11, 1-[[(3-((3-Methylphenylaminocarbonyl)amino)-5-phenyl-3H-1,4-benzodiazepin-2-yl)amino]acetyl]-pyrrolidine] | – | – | 1100 | 5.9 | 20 | – |
| Cc1cccc(NC(=O)NC2N=C(c3ccccc3)c3ccccc3N=C2NCC(=O)N2CCN(C)CC2)c1 (stereo not shown) [Example 12, 1-Methyl-4-[[(3-((((3-methylphenyl)amino)carbonyl)amino)-5-phenyl-3H-1,4-benzodiazepin-2-yl)amino]acetyl]-piperazine] | – | – | 1000 | 124 | 180 | – |
| CCN(CC)CCCNC1=Nc2ccccc2C(c2ccccc2)=NC1NC(=O)Nc1cccc(C)c1 (stereo not shown) [Example 13, N-[2-[((3-Diethylamino)propyl)amino]-5-phenyl-3H-1,4-benzodiazepin-3-yl]-N'-[3-methylphenyl]-urea] | – | – | 14000 | 78 | 120 | – |
| Cc1cccc(NC(=O)NC2N=C(c3ccccc3)c3ccccc3N=C2NCCCN2CCCC2=O)c1 (stereo not shown) [Example 14, N-[3-Methylphenyl]-N'-[2-((3-(2-oxo)pyrrolidinyl)propyl)amino-5-phenyl-3H-1,4-benzodiazepin-3-yl]-urea] | – | – | 590 | 15 | 13 | – |
| CSCC[C@H](NC(=O)[C@H](Cc1c[nH]c2ccccc12)NC(=O)CCNC(=O)OC(C)(C)C)C(=O)N[C@@H](CC(=O)O)C(=O)N[C@@H](Cc1ccccc1)C(N)=O [pentagastrin] | – | high affinity | – | – | – | – |
| gastrin: neuropeptide structurally related to cholecystokinin | lower affinity | – | – | – | – | – |
